Measured values reported in publication PMC6850446, “In vivo inactivation of glycosidases by conduritol B epoxide and cyclophellitol as revealed by activity‐based protein profiling” (The Febs Journal, 2019).
Like-named read-outs stand apart in the source and are kept apart here.

Assays:
GBA3 = molecular target: T1, GBA3 (Homo sapiens, UniProt Q9H227); assay: intact cells treated, residual activity in lysate supernatant with 4MU-glucoside; assay type: cell-based
T1 construct: human GBA3 overexpressed in HEK293T; expected 45-53 kDa
T1 sequence (Q9H227 1-469): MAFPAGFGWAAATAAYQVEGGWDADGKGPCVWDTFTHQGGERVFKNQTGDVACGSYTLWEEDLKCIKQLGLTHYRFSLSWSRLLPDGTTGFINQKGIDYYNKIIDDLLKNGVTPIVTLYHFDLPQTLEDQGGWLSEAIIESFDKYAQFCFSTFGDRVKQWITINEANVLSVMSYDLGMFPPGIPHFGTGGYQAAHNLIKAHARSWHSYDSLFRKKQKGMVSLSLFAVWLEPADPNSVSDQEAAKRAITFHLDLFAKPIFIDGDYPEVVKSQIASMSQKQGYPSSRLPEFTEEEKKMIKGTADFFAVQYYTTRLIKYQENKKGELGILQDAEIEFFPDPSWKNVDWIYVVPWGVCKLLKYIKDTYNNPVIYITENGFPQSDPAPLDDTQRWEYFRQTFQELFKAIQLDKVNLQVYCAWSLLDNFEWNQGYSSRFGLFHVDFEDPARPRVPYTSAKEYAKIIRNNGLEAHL
Source text: intact cells treated, residual activity in lysate supernatant with 4MU-glucoside on GBA3

GUSB (zebrafish larvae) = molecular target: T2, GUSB (zebrafish larvae) (Danio rerio, UniProt F1QGS9); assay: live larvae exposed, residual activity in lysate with 4MU-beta-D-glucuronide; details: covalent; in vivo: concentration in egg water, 5 days at 28.5 °C; assay pH 5.0; read-out: CBE / Enz. assay
T2 construct: endogenous enzyme in larvae, measured in larval lysate
T2 sequence (F1QGS9 26-644): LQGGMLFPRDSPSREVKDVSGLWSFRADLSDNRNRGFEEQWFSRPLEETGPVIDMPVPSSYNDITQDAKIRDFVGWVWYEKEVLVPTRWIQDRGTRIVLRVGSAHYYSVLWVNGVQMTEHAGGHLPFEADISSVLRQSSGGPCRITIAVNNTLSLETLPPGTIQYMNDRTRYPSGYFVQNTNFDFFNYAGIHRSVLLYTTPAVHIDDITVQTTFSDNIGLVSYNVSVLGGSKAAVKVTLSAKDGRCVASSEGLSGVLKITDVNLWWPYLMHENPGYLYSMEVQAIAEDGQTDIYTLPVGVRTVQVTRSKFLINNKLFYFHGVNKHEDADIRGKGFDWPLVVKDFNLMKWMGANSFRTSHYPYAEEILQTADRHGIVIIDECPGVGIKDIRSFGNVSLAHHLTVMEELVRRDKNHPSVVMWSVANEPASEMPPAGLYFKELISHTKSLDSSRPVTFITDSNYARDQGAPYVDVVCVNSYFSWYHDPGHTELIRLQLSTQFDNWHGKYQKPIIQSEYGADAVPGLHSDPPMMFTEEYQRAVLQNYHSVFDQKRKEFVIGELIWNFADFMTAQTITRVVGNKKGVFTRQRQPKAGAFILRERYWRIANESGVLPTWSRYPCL
Source text: live larvae exposed, residual activity in lysate with 4MU-beta-D-glucuronide on GUSB (zebrafish larvae)

[1] = molecular target: T3, GUSB (lysosomal beta-glucuronidase) (Homo sapiens, UniProt P08236); assay: intact cells treated, residual activity in lysate with 4MU-beta-D-glucuronide; assay type: cell-based; details: 24 h treatment of intact HEK293T cells, assay pH 5.0
T3 construct: endogenous enzyme in HEK293T cells (GBA2-expressing line)
T3 sequence (P08236 23-651): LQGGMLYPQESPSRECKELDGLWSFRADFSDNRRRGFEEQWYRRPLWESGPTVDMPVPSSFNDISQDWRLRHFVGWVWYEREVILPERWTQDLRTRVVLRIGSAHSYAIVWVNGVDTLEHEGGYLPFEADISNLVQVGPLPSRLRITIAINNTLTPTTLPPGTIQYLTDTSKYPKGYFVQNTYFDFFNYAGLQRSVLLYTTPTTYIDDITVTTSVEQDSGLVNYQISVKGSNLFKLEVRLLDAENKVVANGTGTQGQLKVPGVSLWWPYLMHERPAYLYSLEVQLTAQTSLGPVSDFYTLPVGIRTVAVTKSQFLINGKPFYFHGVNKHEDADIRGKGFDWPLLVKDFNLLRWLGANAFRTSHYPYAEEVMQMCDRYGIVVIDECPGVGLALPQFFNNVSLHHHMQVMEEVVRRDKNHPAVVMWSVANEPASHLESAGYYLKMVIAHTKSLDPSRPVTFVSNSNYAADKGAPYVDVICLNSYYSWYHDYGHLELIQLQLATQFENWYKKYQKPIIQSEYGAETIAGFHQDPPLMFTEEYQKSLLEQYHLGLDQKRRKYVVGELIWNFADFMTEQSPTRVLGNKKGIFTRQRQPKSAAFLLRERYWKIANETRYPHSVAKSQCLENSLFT

GANAB (zebrafish larvae) = tested on: T4, GANAB (zebrafish larvae); assay: live larvae exposed, residual activity in lysate with 4MU-alpha-D-glucopyranoside; parameters: species or system Danio rerio; details: covalent; in vivo: concentration in egg water, 5 days at 28.5 °C; assay pH 7.0; read-out: CBE / Enz. assay
T4 construct: endogenous enzyme in larvae, measured in larval lysate; paralogues not distinguished
Source text: live larvae exposed, residual activity in lysate with 4MU-alpha-D-glucopyranoside on GANAB (zebrafish larvae)

| Structure (SMILES) | IC50 (GBA3; read-out: CBE / Enz. assay) | IC50 (GUSB (zebrafish larvae)) | IC50 ([1]; covalent, read-out: CBE / Enz. assay) | IC50 (GANAB (zebrafish larvae)) | IC50 (GBA3; read-out: CP / Enz. assay) | IC50 ([1]; read-out: apparent IC50) |
| --- | --- | --- | --- | --- | --- | --- |
| OC1C(O)C(O)C2OC2C1O (stereo not drawn) [compound 1, conduritol B epoxide] | 474 µM | 6380 µM | 607 µM | 4550 µM |  |  |
| OC[C@@H]1[C@@H](O)[C@H](O)[C@@H](O)[C@@H]2O[C@H]12 [compound 2, cyclophellitol] |  |  |  |  | > 10 µM | > 10 µM |
